# Data: patent US11498904B2, “Substituted biaryl compounds as indoleamine 2,3-dioxygenase (IDO) inhibitors” (MERCK SHARP & DOHME CORP., priority 2017, dated 2022)
# Structures can show the parent of a compound that is named as a salt.
# Target: IDO1 (Homo sapiens, UniProt P14902)
# Assay: IDO1 Human Whole Blood Assay
# Format: cell-based
# Conditions: LPS and IFNγ 100 ng/mL, 18 h, kynurenine by LC/MS/MS, read-out: Human Whole Blood Potency, IC50
# Procedure: IDO1 Human Whole Blood Assay
# Compounds to be tested were serially diluted in ten 3-fold steps in DMSO starting from 10 mM. […] LPS and IFNγ was prepared in RPMI to a 10× of final conc. (1000 ng/mL), final concentration is 100 ng/mL.
# 240 μL of blood was transferred to each of the wells of a v-bottom 96 well plate. 30 μL of compound was transferred from intermediate dilution plate, and incubated for 15 min. 30 μL from stimulants was then transferred to blood and mixed thoroughly. Plate was covered with breathable membrane and incubated at 37° C. for overnight (18 h).
# On day 2 isotope labeled standard of kynurenine and tryptophan was made in water at 10× concentration and 30 μL was added to the blood at 3 μM final concentration. The assay plates were centrifuged at 300×G for 10 min with no brake to separate plasma from red blood cells. 60 μL of plasma samples was removed without disturbing red blood cells. Plasma was diluted with RPMI in 1:1 ratio and proteins were precipitated out with two volume of
# Acetonitrile. The plates were centrifuged at 4000×G for 60 min. 20 μL of supernatant was carefully transferred to a 384 well plate contain 40 μL of 0.1% formic acid in water and analyzed by LC/MS/MS.
# LC/MS/MS analyses were performed using Thermo Fisher's LX4-TSQ Quantum Ultra system. This system consists of four Agilent binary high-performance liquid chromatography (HPLC) pumps and a TSQ Quantum Ultra triple quadrupole MS/MS instrument. For each sample, 5 μL were injected onto an Atlantis T3 column (2.1 mm×150 mm, 3 μm particle size) from Waters. The mobile phase gradient pumped at 0.8 mL/min was used to elute the analytes from the column at 25° C. […] Mobile phase A consisted of 0.1% formic acid in water. Mobile phase B consisted of 0.1% of formic acid in acetonitrile. Data was acquired in positive mode using a HESI interface. The operational parameters for the TSQ Quantum Ultra instrument were a spray voltage of 4000 V, capillary temperature of 380° C., vaporizer temperature 400° C., shealth gas 60 arbitrary units, Aux gas 20 arbitrary units, tube lens 85 and collision gas 1.2 mTorr. SRM chromatograms of kynurenine (Q1: 209.2>Q3:94.0) and internal standard (Q1: 215.3>Q3:98.2) were collected for 90 sec. The peak area was integrated by Xcalibur Quan software. The ratios between the kynurenine generated in the reaction and 2D6-Kynurenine spiked-in internal standard were used to generate percentage inhibition and IC50 values. Compounds were titrated and IC50's were calculated by 4 parameter sigmoidal curve fitting formula.
# The biological activity data of selective compounds using the IDO1 human whole blood assay described above are summarized in the table below.
# Chain of IDO1 (P14902 whole entry): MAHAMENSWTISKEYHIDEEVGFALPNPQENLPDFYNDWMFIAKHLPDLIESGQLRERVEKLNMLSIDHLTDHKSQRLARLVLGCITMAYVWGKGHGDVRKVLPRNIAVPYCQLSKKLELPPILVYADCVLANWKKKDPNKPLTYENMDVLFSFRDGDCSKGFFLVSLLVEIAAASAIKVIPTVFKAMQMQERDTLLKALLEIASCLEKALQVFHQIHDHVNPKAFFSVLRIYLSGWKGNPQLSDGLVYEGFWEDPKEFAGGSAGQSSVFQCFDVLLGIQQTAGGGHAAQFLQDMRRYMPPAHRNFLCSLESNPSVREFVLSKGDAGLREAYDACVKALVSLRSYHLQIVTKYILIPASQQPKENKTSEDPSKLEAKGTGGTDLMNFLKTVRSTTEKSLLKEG
row,Compound,IC50
1,"CC(C)Oc1cc(CO)c(-c2ccc(C3(NC(=O)c4ccc(F)cc4)CC3)cc2)cn1 [Example 49, 4-fluoro-N-(1-(4-(4-(hydroxymethyl)-6-isopropoxypyridin-3-yl)phenyl)cyclopropyl)benzamide]",579 nM
2,"CC(C)(O)c1cc(OC2CC2)ncc1-c1ccc(C2(NC(=O)c3ccc(F)cc3)CCC2)cc1 [Example 54, N-(1-(4-(6-cyclopropoxy-4-(2-hydroxypropan-2-yl)pyridin-3-yl)phenyl)cyclobutyl)-4-fluorobenzamide]",336 nM
3,"O=C(NC1(c2ccc(-c3cnc(C(F)(F)F)cc3CO)cc2)CC1)c1ccc(Cl)cc1 [Example 46, 4-chloro-N-(1-(4-(4-(hydroxymethyl)-6-(trifluoromethyl)pyridin-3-yl)phenyl)cyclopropyl)benzamide]",703 nM
4,"CC(C)(O)c1cc(OC2CC2)ncc1-c1ccc(C2(NC(=O)c3ccc(F)cc3)CC2)cc1 [Example 47, N-(1-(4-(6-cyclopropoxy-4-(2-hydroxypropan-2-yl)pyridin-3-yl)phenyl)cyclopropyl)-4-fluorobenzamide]",127 nM
5,"O=C(NC1(c2ccc(-c3cnc(OC4CC4)cc3CO)cc2)CC1)c1ccc(F)cc1 [Example 48, N-(1-(4-(6-cyclopropoxy-4-(hydroxymethyl)pyridin-3-yl)phenyl)cyclopropyl)-4-fluorobenzamide]",922 nM
6,"C[C@@H](O)c1cc(C(F)(F)F)ncc1-c1ccc(C2(NC(=O)c3ccc(F)cc3)CC2)cc1 [Example 51, (R)-4-fluoro-N-(1-(4-(4-(1-hydroxyethyl)-6-(trifluoromethyl)pyridin-3-yl)phenyl)cyclopropyl)benzamide, 2,2,2-trifluoroacetate salt]",233 nM
7,"CC1CC1(NC(=O)c1ccc(F)cc1)c1ccc(-c2cnc(C(F)(F)F)cc2C(C)(C)O)nc1 (single isomer, unassigned) [Example 59]",171 nM
8,"CC1CC1(NC(=O)c1ccc(F)cc1)c1ccc(-c2cnc(C(F)(F)F)cc2C(C)(C)O)nc1 (single isomer, unassigned) [Example 56, 4-fluoro-N-(1-(4′-(2-hydroxypropan-2-yl)-6′-(trifluoromethyl)-[2,3′-bipyridin]-5-yl)-2-methylcyclopropyl)benzamide]",361 nM
9,O=C(NC1(c2ccc(-c3cnc(C(F)(F)F)cc3CO)cc2)CCC1)c1ccc(F)cc1 [Example 53],1000 nM
10,"COc1cc(C)c(-c2ccc(C3(NC(=O)c4ccc(C#N)cc4)CCC3)cc2)c(C)n1 [Example 36, 4-cyano-N-(1-(4-(6-methoxy-2,4-dimethylpyridin-3-yl)phenyl)cyclobutyl)benzamide]",308 nM
11,"Cc1cc(C2CC2)ncc1-c1ccc(C2(NC(=O)c3ccc(C#N)cc3)CCC2)cc1F [Example 7, 4-Cyano-N-(1-(4-(6-cyclopropyl-4-methylpyridin-3-yl)-3-fluorophenyl)cyclobutyl)benzamide]",398 nM
12,"Cc1cc(C2CC2)ncc1-c1ccc(C2(NC(=O)c3ccc(C#N)cc3)CCC2)nc1 [Example 42, 4-Cyano-N-(1-(6′-cyclopropyl-4′-methyl-[3,3′-bipyridin]-6-yl)cyclobutyl)benzamide]",392 nM
13,"C[C@H](O)c1cc(C(F)(F)F)ncc1-c1ccc(C2(NC(=O)c3ccc(F)cc3)CC2)cc1 [Example 50, (S)-4-fluoro-N-(1-(4-(4-(1-hydroxyethyl)-6-(trifluoromethyl)pyridin-3-yl)phenyl)cyclopropyl)benzamide]",186 nM
14,"N#Cc1ccc(C(=O)NC2(c3ccc(-c4ccc(C5CC5)nc4CO)cc3)CCC2)cc1 [Example 25, 4-cyano-N-(1-(4-(6-cyclopropyl-2-(hydroxymethyl)pyridin-3-yl)phenyl)cyclobutyl)benzamide]",587 nM
15,"N#Cc1ccc(C(=O)NC2(c3ccc(-c4cnc(C(F)(F)F)cc4CO)cc3)CCC2)cc1 [Example 35, 4-cyano-N-(1-(4-(4-(hydroxymethyl)-6-(trifluoromethyl)pyridin-3-yl)phenyl)cyclobutyl)benzamide]",1070 nM
16,"CC(C)(O)c1cc(C(F)(F)F)ncc1-c1ccc(C2(NC(=O)c3ccc(F)cc3)CCC2)cc1 [Example 52, 4-fluoro-N-(1-(4-(4-(2-hydroxypropan-2-yl)-6-(trifluoromethyl)pyridin-3-yl)phenyl)cyclobutyl)benzamide]",152 nM
17,"CC1CC1(NC(=O)c1ccc(F)cc1)c1ccc(-c2cnc(C(F)(F)F)cc2C(C)(C)O)nc1 (single isomer, unassigned) [Example 58]",284 nM
18,"Cc1cc(C2CC2)ncc1-c1ccc(C2(NC(=O)c3ccc(C#N)cc3)CCC2)cc1 [Example 12, 4-cyano-N-(1-(4-(6-cyclopropyl-4-methylpyridin-3-yl)phenyl)cyclobutyl)benzamide]",246 nM
19,"CC1CC1(NC(=O)c1ccc(F)cc1)c1ccc(-c2cnc(C(F)(F)F)cc2C(C)(C)O)nc1 (single isomer, unassigned) [Example 60]",210 nM
